In the oligonucleotide strings, read from the 5' end, every base follows the letter of its sugar. An asterisk marks phosphorothioate; unmarked linkages are phosphodiester. Other units and linkages are bracketed, terminal groups are in braces. A string of capitals states the bases alone. e = 2'-O-(2-methoxyethyl) (MOE); [5mC] = 5-methylcytosine; d = 2'-deoxy (DNA)
System: T47D cells
Assay: Caspase-3 activity assay (apoptosis) in T47D cells
Settings: T47D cells, 200 nM oligomeric compound, 48 hours; experiment of Table 10

Row | Substance | Fold Increase over UTC (caspase-3 activity, apoptosis) [fold]
1 | 328375 (eT*eA*e[5mC]*e[5mC]*eA*dT*dA*d[5mC]*dA*dG*dA*dA*dA*d[5mC]*dA*e[5mC]*eA*eG*e[5mC]*eA; antisense) [compound 328375] | 0.9
2 | 328694 (e[5mC]*eA*eA*eA*e[5mC]*dG*dG*dT*dA*dA*dG*dA*dT*dT*dT*eG*e[5mC]*eA*eG*eA; antisense) [compound 328694] | 0.8
3 | 328646 (eG*e[5mC]*eT*eT*eT*dT*dA*dG*dA*dA*d[5mC]*d[5mC]*dA*d[5mC]*dT*eG*e[5mC]*e[5mC]*eT*e[5mC]; antisense) [compound 328646] | 1.1
4 | 328425 (antisense eG*eA*e[5mC]*e[5mC]*eT*dG*d[5mC]*dT*dA*d[5mC]*dT*d[5mC]*dA*d[5mC]*dT*e[5mC]*eT*e[5mC]*eG*eT) [compound 328425] | 0.8
5 | 328431 (antisense eA*e[5mC]*e[5mC]*eT*e[5mC]*dT*d[5mC]*dA*dG*dG*dA*dA*dG*dA*d[5mC]*eG*eG*eA*e[5mC]*eT) [compound 328431] | 0.9

Same assay, conditions: T47D cells, 200 nM oligomeric compound, 48 hours; experiment of Table 11

Row | Substance | Fold Increase over UTC (caspase-3 activity, apoptosis) [fold]
6 | 328435 (antisense eT*e[5mC]*eT*eA*eA*dG*dG*dG*dG*dT*d[5mC]*dA*d[5mC]*dA*dG*eA*eA*eG*eG*eT) [compound 328435] | 1.3
7 | 328427 (antisense eG*eA*eT*eG*eT*d[5mC]*dA*d[5mC]*dT*dG*dA*dG*dG*dA*dA*eA*eT*e[5mC]*eA*e[5mC]) [compound 328427] | 0.8
8 | 328410 (antisense eG*eG*eG*e[5mC]*e[5mC]*dT*dA*dT*d[5mC]*d[5mC]*dA*dA*dA*dG*dT*eG*eA*e[5mC]*eA*eG) [compound 328410] | 1.5
9 | 328386 (eA*e[5mC]*e[5mC]*eT*eG*dT*dG*dT*dA*dA*d[5mC]*dA*dG*d[5mC]*d[5mC]*eG*eT*eG*eT*eA; antisense) [compound 328386] | 0.7
10 | 328653 (eG*eT*eG*eT*eT*d[5mC]*dA*dG*dA*dA*dA*d[5mC]*d[5mC]*d[5mC]*dA*eG*eG*e[5mC]*e[5mC]*e[5mC]; antisense) [compound 328653] | 1.1

Same assay, conditions: T47D cells, 200 nM oligomeric compound, 48 hours; experiment of Table 12

Row | Substance | Fold Increase over UTC (caspase-3 activity, apoptosis) [fold]
11 | 328379 (e[5mC]*eT*eG*eA*e[5mC]*dT*dG*dA*dG*dA*d[5mC]*dT*dG*dT*dT*e[5mC]*eA*e[5mC]*eA*eG; antisense) [compound 328379] | 1.1
12 | 328389 (eG*eG*e[5mC]*eA*e[5mC]*dT*dT*d[5mC]*dA*dT*dT*dG*d[5mC]*dT*dG*e[5mC]*eT*eG*e[5mC]*e[5mC]; antisense) [compound 328389] | 1.1
13 | 328414 (antisense e[5mC]*eT*eT*e[5mC]*eA*dA*dG*dT*dG*d[5mC]*dA*dG*d[5mC]*d[5mC]*dG*eT*eA*eG*eG*e[5mC]) [compound 328414] | 0.9
14 | 328642 (eA*e[5mC]*eT*e[5mC]*e[5mC]*d[5mC]*dA*dG*dG*dG*dT*dG*dT*dA*dA*e[5mC]*eT*e[5mC]*eT*eA; antisense) [compound 328642] | 1.0
15 | 328690 (eG*e[5mC]*e[5mC]*eT*e[5mC]*d[5mC]*dT*dT*d[5mC]*dA*dT*dA*dT*dA*dT*eT*e[5mC]*eT*e[5mC]*eA; antisense) [compound 328690] | 0.8
16 | 328373 (eG*eG*eG*eA*eA*dG*dG*dA*dT*dT*dG*d[5mC]*d[5mC]*dT*dA*eG*e[5mC]*eA*eG*eT; antisense) [compound 328373] | 0.9
17 | 328418 (antisense eA*eG*eT*eG*eT*d[5mC]*dT*d[5mC]*dA*dT*d[5mC]*dG*d[5mC]*dA*dA*eA*e[5mC]*eT*eT*eA) [compound 328418] | 1.0
18 | 328387 (eT*eT*eA*eT*e[5mC]*dG*dG*dA*dA*d[5mC]*dT*dT*d[5mC]*dA*d[5mC]*eA*eG*eA*eG*eA; antisense) [compound 328387] | 1.4
19 | 328401 (antisense eG*e[5mC]*e[5mC]*e[5mC]*eT*d[5mC]*dG*dA*d[5mC]*dG*dA*dA*dA*dA*d[5mC]*e[5mC]*eG*eA*e[5mC]*eT) [compound 328401] | 0.8
20 | 328432 (antisense eG*eA*eG*e[5mC]*eA*dT*dG*d[5mC]*dA*dA*d[5mC]*dA*d[5mC]*dT*d[5mC]*eT*eG*eT*eG*e[5mC]) [compound 328432] | 0.6

Same assay, conditions: T47D cells, 200 nM, 48 hours, relative to untreated control

Row | Substance | Fold Increase over UTC (caspase activity)
21 | 328378 (e[5mC]*eA*e[5mC]*e[5mC]*e[5mC]*dT*d[5mC]*d[5mC]*dA*dG*dT*dG*d[5mC]*dT*dG*eT*eT*eA*eG*eT; antisense) [compound 328378] | 1.0
22 | 328391 (eA*eT*eG*eG*eT*dA*dA*dT*dT*dT*d[5mC]*dA*dT*dT*dT*e[5mC]*eA*eG*eG*e[5mC]; antisense) [compound 328391] | 0.8
23 | 328420 (antisense eG*e[5mC]*eT*eG*eA*dT*dT*dA*d[5mC]*dG*dA*dA*dA*dG*dA*e[5mC]*eA*eG*eG*eA) [compound 328420] | 1.0
24 | 328416 (antisense eA*e[5mC]*eA*eT*eT*dG*d[5mC]*dT*dA*dT*d[5mC]*dA*dT*dA*dA*eG*eA*eG*e[5mC]*eT) [compound 328416] | 0.9
25 | 328405 (antisense e[5mC]*eT*eG*eA*eA*d[5mC]*dA*dG*dG*dG*dT*dA*dA*dA*dA*eT*e[5mC]*eA*e[5mC]*eT) [compound 328405] | 1.0
26 | 328656 (eT*eT*eT*e[5mC]*eA*dG*dG*d[5mC]*dT*d[5mC]*dA*d[5mC]*d[5mC]*dT*d[5mC]*e[5mC]*e[5mC]*e[5mC]*eA*eG; antisense) [compound 328656] | 1.1

Same assay, conditions: caspase assay, 200 nM; conclusion from Tables 9-12

Row | Substance | apoptosis in T47D cells
27 | ACTGATTCAAGAGCTTTGTA (antisense; same sequence listed as MOE 5-10-5 gapmer and as uniform MOE, further chemistry not given here) [ISIS 328648] | induce apoptosis
28 | TTTCAGGCTCACCTCCCCAG (antisense; same sequence listed as MOE 5-10-5 gapmer and as uniform MOE, further chemistry not given here) [ISIS 328656] | induce apoptosis
29 | GACTACTGTTGAGAGGAACA (antisense; same sequence listed as MOE 5-10-5 gapmer and as uniform MOE, further chemistry not given here) [ISIS 328639] | prevent or have a protective effect from apoptosis
30 | SEQ ID NO 535: gapmer of Tables 9-12 having this SEQ ID NO (antisense eG*eG*eT*eT*eG*dG*d[5mC]*d[5mC]*dG*d[5mC]*dA*dG*dA*d[5mC]*dT*e[5mC]*eG*eT*eA*e[5mC]) | induce apoptosis
31 | SEQ ID NO 485: gapmer of Tables 9-12 having this SEQ ID NO (antisense eT*e[5mC]*eA*e[5mC]*eA*dA*dT*d[5mC]*d[5mC]*d[5mC]*d[5mC]*dA*d[5mC]*d[5mC]*dA*eA*eA*e[5mC]*eT*e[5mC]) | prevent or have a protective effect from apoptosis
32 | ISIS 328391: 5-10-5 2′-MOE gapmer PS; targets hypothetical miRNA-044 pri-miRNA (eA*eT*eG*eG*eT*dA*dA*dT*dT*dT*d[5mC]*dA*dT*dT*dT*e[5mC]*eA*eG*eG*e[5mC]) | prevent or have a protective effect from apoptosis
33 | SEQ ID NO 532: gapmer of Tables 9-12 having this SEQ ID NO (antisense e[5mC]*e[5mC]*eA*e[5mC]*eA*dT*dA*dT*dA*d[5mC]*dA*dT*dA*dT*dA*eT*eA*e[5mC]*eG*e[5mC]) | prevent or have a protective effect from apoptosis
34 | SEQ ID NO 496: gapmer of Tables 9-12 having this SEQ ID NO (antisense eT*eT*eA*eT*e[5mC]*dG*dG*dA*dA*d[5mC]*dT*dT*d[5mC]*dA*d[5mC]*eA*eG*eA*eG*eA) | induce apoptosis
35 | SEQ ID NO 534: gapmer of Tables 9-12 having this SEQ ID NO (antisense eG*eA*e[5mC]*e[5mC]*eT*dG*d[5mC]*dT*dA*d[5mC]*dT*d[5mC]*dA*d[5mC]*dT*e[5mC]*eT*e[5mC]*eG*eT) | prevent or have a protective effect from apoptosis
36 | SEQ ID NO 516: gapmer of Tables 9-12 having this SEQ ID NO (antisense eA*eA*eT*eG*eG*dA*dG*d[5mC]*d[5mC]*dA*dA*dG*dG*dT*dG*e[5mC]*eT*eG*e[5mC]*e[5mC]) | induce apoptosis
37 | TACAATTTGGGAGTCCTGAA (antisense; same sequence listed as MOE 5-10-5 gapmer and as uniform MOE, further chemistry not given here) [ISIS 328689] | prevent or have a protective effect from apoptosis
38 | SEQ ID NO 544: gapmer of Tables 9-12 having this SEQ ID NO (eT*e[5mC]*eT*eA*eA*dG*dG*dG*dG*dT*d[5mC]*dA*d[5mC]*dA*dG*eA*eA*eG*eG*eT) | induce apoptosis

— patent US8178506B2, “Oligomeric compounds and compositions for use in modulation of small non-coding RNAs” (Regulus Therapeutics Inc., priority 2003, dated 2012)
